Experimental data: the NIST ThermoML archive (doi:10.1021/je0301794)
± gives the expanded uncertainty stated by the source.

What was measured:
[1] = xn = mol fraction of the nth substance listed; details: 101.3 kPa, Liquid
[2] = excess molar enthalpy (molar enthalpy of mixing); xn = mol fraction of the nth substance listed; details: 318.15 K, 101.3 kPa, Liquid

CCCCCCCCC [nonane] + COC(=O)OC
[1]
Details | mass density [kg/m3]
293.15 K, x2 = 0 | 717.7 ± 0.5
293.15 K, x2 = 0.0444 | 724.2 ± 0.5
293.15 K, x2 = 0.0909 | 731.4 ± 0.5
293.15 K, x2 = 0.1838 | 747.3 ± 0.5
293.15 K, x2 = 0.28 | 766.3 ± 0.5
293.15 K, x2 = 0.3783 | 789 ± 0.5
293.15 K, x2 = 0.4778 | 815.8 ± 0.5
293.15 K, x2 = 0.5789 | 847.5 ± 0.5
293.15 K, x2 = 0.6816 | 885.9 ± 0.5
293.15 K, x2 = 0.7851 | 932.5 ± 0.5
293.15 K, x2 = 0.8921 | 991.9 ± 0.5
293.15 K, x2 = 0.9461 | 1028.3 ± 0.5
298.15 K, x2 = 0 | 713.9 ± 0.5
298.15 K, x2 = 0.0247 | 717.5 ± 0.5
298.15 K, x2 = 0.083 | 726.1 ± 0.5
298.15 K, x2 = 0.1221 | 732.4 ± 0.5
298.15 K, x2 = 0.1812 | 742.6 ± 0.5
298.15 K, x2 = 0.2278 | 751.4 ± 0.5
298.15 K, x2 = 0.317 | 770 ± 0.5
298.15 K, x2 = 0.3986 | 789.4 ± 0.5
298.15 K, x2 = 0.4701 | 808.5 ± 0.5
298.15 K, x2 = 0.5281 | 825.7 ± 0.5
298.15 K, x2 = 0.601 | 849.8 ± 0.5
298.15 K, x2 = 0.6553 | 869.8 ± 0.5
298.15 K, x2 = 0.7064 | 890.4 ± 0.5
298.15 K, x2 = 0.7517 | 910.5 ± 0.5
298.15 K, x2 = 0.7982 | 933 ± 0.5
298.15 K, x2 = 0.8404 | 955.5 ± 0.5
298.15 K, x2 = 0.8725 | 973.9 ± 0.5
298.15 K, x2 = 0.9073 | 995.7 ± 0.5
298.15 K, x2 = 0.9371 | 1015.5 ± 0.5
298.15 K, x2 = 0.9711 | 1040.4 ± 0.5
303.15 K, x2 = 0 | 710.1 ± 0.5
303.15 K, x2 = 0.0444 | 716.3 ± 0.5
303.15 K, x2 = 0.0909 | 723.3 ± 0.5
303.15 K, x2 = 0.1838 | 738.9 ± 0.5
303.15 K, x2 = 0.28 | 757.5 ± 0.5
303.15 K, x2 = 0.3783 | 779.7 ± 0.5
303.15 K, x2 = 0.4778 | 805.9 ± 0.5
303.15 K, x2 = 0.5789 | 837 ± 0.5
303.15 K, x2 = 0.6816 | 874.8 ± 0.5
303.15 K, x2 = 0.7851 | 920.7 ± 0.5
303.15 K, x2 = 0.8921 | 979.7 ± 0.5
303.15 K, x2 = 0.9461 | 1015.6 ± 0.5
313.15 K, x2 = 0 | 702.2 ± 0.5
313.15 K, x2 = 0.0444 | 708.3 ± 0.5
313.15 K, x2 = 0.0909 | 715.1 ± 0.5
313.15 K, x2 = 0.1838 | 730.4 ± 0.5
313.15 K, x2 = 0.28 | 748.7 ± 0.5
313.15 K, x2 = 0.3783 | 770.5 ± 0.5
313.15 K, x2 = 0.4778 | 796 ± 0.5
313.15 K, x2 = 0.5789 | 826.7 ± 0.5
313.15 K, x2 = 0.6816 | 864 ± 0.5
313.15 K, x2 = 0.7851 | 909.4 ± 0.5
313.15 K, x2 = 0.8921 | 967.3 ± 0.5
313.15 K, x2 = 0.9461 | 1002.8 ± 0.5
318.15 K, x2 = 0 | 698.1 ± 0.5
318.15 K, x2 = 0.0409 | 703.8 ± 0.5
318.15 K, x2 = 0.0763 | 709 ± 0.5
318.15 K, x2 = 0.1089 | 714 ± 0.5
318.15 K, x2 = 0.1249 | 716.6 ± 0.5
318.15 K, x2 = 0.1452 | 719.9 ± 0.5
318.15 K, x2 = 0.1957 | 728.5 ± 0.5
318.15 K, x2 = 0.2309 | 735 ± 0.5
318.15 K, x2 = 0.3153 | 751.7 ± 0.5
318.15 K, x2 = 0.3894 | 768.3 ± 0.5
318.15 K, x2 = 0.4732 | 789.6 ± 0.5
318.15 K, x2 = 0.5442 | 810.1 ± 0.5
318.15 K, x2 = 0.6088 | 831.2 ± 0.5
318.15 K, x2 = 0.6356 | 840.8 ± 0.5
318.15 K, x2 = 0.711 | 870.1 ± 0.5
318.15 K, x2 = 0.761 | 891.8 ± 0.5
318.15 K, x2 = 0.787 | 904 ± 0.5
318.15 K, x2 = 0.8304 | 926 ± 0.5
318.15 K, x2 = 0.8802 | 954.1 ± 0.5
318.15 K, x2 = 0.9335 | 987.7 ± 0.5
318.15 K, x2 = 0.9414 | 993.1 ± 0.5
318.15 K, x2 = 0.972 | 1015 ± 0.5

[2]
Details | excess molar enthalpy [kJ/mol]
x2 = 0 | 0 ± 0.002
x2 = 0.1291 | 1 ± 0.022
x2 = 0.2483 | 1.66 ± 0.035
x2 = 0.3498 | 2.05 ± 0.043
x2 = 0.4426 | 2.25 ± 0.047
x2 = 0.5099 | 2.3 ± 0.048
x2 = 0.573 | 2.3 ± 0.048
x2 = 0.627 | 2.23 ± 0.047
x2 = 0.6622 | 2.15 ± 0.045
x2 = 0.6743 | 2.13 ± 0.045
x2 = 0.7043 | 2.05 ± 0.043
x2 = 0.748 | 1.9 ± 0.04
x2 = 0.7814 | 1.79 ± 0.038
x2 = 0.8236 | 1.58 ± 0.034
x2 = 0.8663 | 1.32 ± 0.028
x2 = 0.9069 | 1.04 ± 0.023
x2 = 0.9415 | 0.754 ± 0.017
x2 = 0.9752 | 0.41 ± 0.01
